From US20080103173A1, “Compounds Having Activity At Nk3 Receptor And Uses Thereof In Medicine” (SMITHKLINE BEECHAM CORPORATION, priority 2004, published 2008)

Target: T1, NK3 receptor (Homo sapiens, UniProt P29371)
T1 construct: expressed in transfected cells; host or cells: CHO cell lines (plasma membranes)
T1 sequence (P29371 1-465): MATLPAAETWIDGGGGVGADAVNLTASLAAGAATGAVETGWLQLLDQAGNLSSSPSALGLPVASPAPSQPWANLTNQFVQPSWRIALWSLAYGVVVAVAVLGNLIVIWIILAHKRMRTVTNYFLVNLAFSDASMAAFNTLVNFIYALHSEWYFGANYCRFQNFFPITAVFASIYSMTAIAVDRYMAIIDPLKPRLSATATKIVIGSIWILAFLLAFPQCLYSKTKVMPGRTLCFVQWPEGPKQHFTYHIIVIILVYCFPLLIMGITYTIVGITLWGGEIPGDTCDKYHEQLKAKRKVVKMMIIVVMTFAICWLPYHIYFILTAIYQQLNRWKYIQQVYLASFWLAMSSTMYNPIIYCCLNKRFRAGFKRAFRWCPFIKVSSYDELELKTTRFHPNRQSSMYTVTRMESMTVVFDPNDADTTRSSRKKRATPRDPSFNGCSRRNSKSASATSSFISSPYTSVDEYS
Assay: NK3 binding affinity, scintillation proximity assay (SPA), 125I [MePhe7]-NKB
Details: membranes from CHO cell lines expressing NK3 receptors; radioligand 125I [MePhe7]-NKB
Method: a) Measurement of NK3 Binding Affinity
The NK3 binding affinity of the compounds of the invention was determined using the following scintillation proximity assay (SPA) (see H. M. Sarau et al, J. Pharmacol. Experimental Therapeutics 1997, 281(3), 1303-1311; H. M. Sarau et al, J. Pharmacol. Experimental Therapeutics 2000, 295(1), 373-381; G. A. M. Giardina et al J. Med. Chem 1999, 42, 1053-1065). Polystyrene Leadseeker WGA-SPA beads (Amersham Biosciences) were mixed with plasma membrane prepared from CHO cell lines expressing NK3 receptors in a bead/membrane ratio of 20:1 (w/w) in assay buffer (75 mM Tris pH 7.8, 75mM NaCl, 4 mM MnCl2, 1 mM EDTA, 0.05% Chaps, 1 mM PMSF). The mixture was placed on ice for 20 minutes to allow the formation of membrane/bead complex before BSA was added to a final concentration of 1%. After another 20 minutes incubation on ice, the bead/membrane complex was washed twice and suspended in assay buffer. ^125I [MePhe7]-NKB was then added to the bead/membrane complex. […] After 2-3 hours incubation at room temperature with shaking, the plates were spun for 2 min at 1100 rpm and measured in Viewlux imager (PerkinElmer) for 5 minutes with a 618-nm filter. Inhibition of the radioactive ligand binding to the NK3 receptor was measured by the reduction of signal. pKi was calculated using Kd of the radioactive ligand determined in a separate experiment.

## O=C(N[C@H](c1cccc(F)c1)C1CC1)c1c(CN2CCCC2=O)c(-c2ccccc2)nc2ccccc12 [Example 1, N-[(S)-Cyclopropyl(3-fluorophenyl)methyl]-3-[(2-oxo-1-pyrrolidinyl)methyl]-2-phenyl-4-quinolinecarboxamide]
  Ki: 3.16 nM
